# Results published in patent US7700272B2, “Polynucleotides encoding acetylcholine-gated chloride channel subunits of Caenorhabditis elegans” (priority 2004, dated 2010).
# Entries after “also recorded” stand apart in the source; their conditions may differ. Like-named read-outs stand apart in the source and are kept apart here.
# Legend:
# ACC-3D10.5 = assay: Two-electrode voltage-clamp of Xenopus oocytes injected with ACC-3D10.5 cRNA; format: cell-based, C. elegans; settings: 1 mM
# Method: (§7) Oocytes were harvested from mature female Xenopus leavis according to standard procedures (Goldin, A. L. (1992) Maintenance of Xenopus laevis and oocyte injection. Methods Enzymol. 207: 266-79.). To remove inner ovarian epithelium, thecal cell layer, and follicular cells, the ovarian pieces were placed in OR-2 solution: 82.5 mM NaCl, 2 mM KCl, 1 mM MgCl2, and 5 mM Hepes (pH 7.5) containing 1 mg/ml type I collagenase (Sigma, St Louis Mo., USA) either for 3 hours at 20° C. with gentle agitation or for 1 hour followed by manual defolliculization. The stage VI defolliculated oocytes were placed in ND96 solution (96 mM NaCl, 2 mM KCl, 1.8 mM CaCl2, 1 mM MgCl2, and 5 mM Hepes, pH7.5). Oocytes were injected with 40 nl of cRNA using the Nanoject system (Drummond Scientific, Broomall, Pa., USA). Injected oocytes were incubated at 20° C. in ND96 supplemented with 100 mg/ml gentamycin and 550 mg/ml pyruvate. Oocytes were allowed to express cRNA for two days before measurements were taken.
# ACC-2D6.3+ACC-4E9.9 = format: cell-based, C. elegans; settings: 1 mM
# Method: as §7
# ACC-2D6.3+ACC-3D10.5 = format: cell-based, C. elegans; settings: 1 mM
# Method: as §7
# ACC-4E9.9 = assay: Two-electrode voltage-clamp of Xenopus oocytes injected with ACC-4E9.9 cRNA; format: cell-based, C. elegans; settings: 1 mM
# Method: as §7
# ACC-2D6.3 channel [1] = target: ACC-2D6.3 channel (Caenorhabditis elegans, UniProt Q18812); assay: cell-based
# Text: (§1) For capped cRNA synthesis, cDNAs were subcloned into the pT7N vector, which contains a T7 RNA polymerase promoter, the 5′- and 3′-UTR of Xenopus laevis beta-globin, and an encoded poly(A+) tail (Cary R B, Klymkowsky M W, Evans R M, Domingo A, Dent J A, Backhus L E (1994) Vimentin's tail interacts with actin-containing structures in vivo. J Cell Sci 107:1609-1622.). The pT7NcDNA constructs were linearized with Sal I (ACC-2D6.3) or BamHI (ACC-1G6.4) and transcribed using the MEGAscript Kit (Ambion, Austin, Tex., USA). Synthesized cRNAs were recovered by LiCl precipitation and resuspended in nuclease-free H2O at final concentration of 1 microgram/ml.
# (§2) Oocytes were harvested from mature female Xenopus leavis according to standard procedures (Goldin, A. L. (1992) Maintenance of Xenopus laevis and oocyte injection. Methods Enzymol. 207: 266-79.). To remove inner ovarian epithelium, thecal cell layer, and follicular cells, the ovarian pieces were placed in OR-2 solution: 82.5 mM NaCl, 2 mM KCl, 1 mM MgCl2, and 5 mM Hepes (pH 7.5) containing 1 mg/ml type I collagenase (Sigma, St Louis Mo., USA) either for 3 hours at 20° C. with gentle agitation or for 1 hour followed by manual defolliculization. The stage VI defolliculated oocytes were placed in ND96 solution (96 mM NaCl, 2 mM KCl, 1.8 mM CaCl2, 1 mM MgCl2, and 5 mM Hepes, pH7.5). Oocytes were injected with 40 nl of cRNA using the Nanoject system (Drummond Scientific, Broomall, Pa., USA). Injected oocytes were incubated at 20° C. in ND96 supplemented with […] gentamycin and […] pyruvate. Oocytes were allowed to express cRNA for two days before measurements were taken.
# (§3) Two-electrode voltage-clamp recordings were performed using the AxoClamp 2B amplifier (Axon Instruments, Foster City, Calif., USA). Microelectrodes were pulled from borosilicate glass capillaries (Word Precision Instruments, Inc., Sarasota, Fla., USA) on the P-97 micropipette puller Sutter Instruments, Novato, Calif., USA). […] Each oocyte was placed in RC-12 recording chamber (Warner Instrument Inc., Hamden, Conn., USA) or a Maltese cross chamber (ALA Scientific Instruments, Westbury, N.Y., USA) and clamped at −80 mV. Data were acquired at 1 kHz using Clampex software (Axon Instruments, Foster City, Calif., USA).
# (§4) Dose-response curves for agonists were generated by their applying the agonist in increasing concentrations followed by 3-9 min washes at each concentration. To determine EC50 and Hill coefficient agonist dose response curves were fit using the following equation: f(I)=(Imax[I]^n/(EC50^n+[I]^n))+Imin, where I is the normalized response to agonist at certain concentration, Imax is the maximal response elicited by a saturating concentration of agonist, EC50 is the concentration of agonist inducing half-maximal response, n is the Hill coefficient, and Imin is the normalized response at lowest agonist concentration.
# (§5) The mean and standard error of the mean of peak current responses of at least three oocytes per experiment are represented.
# (§6) All drugs were obtained from Sigma-Aldrich (St. Louis, Mo. USA) except imidicloprid (IMI) which was provided by Crompton Co. (Guelph, ON, Canada). Drugs were dissolved in ND96 except IMI, which was made as a stock solution in DMSO and diluted to working concentrations in ND96. If required, drug solutions were adjusted to pH 7.5 with either NaOH or HCl. Fresh solutions were prepared before measurements and stored at 4° C. for 1-5 days.
# ACC-1G6.4 channel = target: T1, ACC-1G6.4 channel (Caenorhabditis elegans, UniProt Q21005); assay: Two-electrode voltage-clamp of Xenopus oocytes expressing ACC-1G6.4 homomeric channel; format: cell-based, C. elegans; settings: for response (in words): 1 mM
# T1 construct: Agonist: percentage of maximal acetylcholine-elicited response; other: compound at 0.1 mM; Agonist: percentage of maximal acetylcholine-elicited response; other: compound at 0.2 mM; other: compound at 0.4 mM; other: compound at 0.8 mM; Agonist: percentage of maxim
# Text: as §1, §2, §3, §4, §5, §6
# rat α9nAChRs = rat α9nAChRs (Rattus norvegicus, UniProt P43144); settings: cited from earlier work
# ACC-2D6.3 channel [2] = assay: cell-based
# Text: as §1, §2, §3, §4, §5, §6
# [3] = target: Aplysia receptors mediating the slow desensitizing chloride-dependent response; settings: cited from earlier work
# [4] = read-out: Agonist: percentage of maximal acetylcholine-elicited response
# Sequence of ACC-2D6.3 channel (Caenorhabditis elegans, UniProt Q18812) (Q18812 whole entry, looked up): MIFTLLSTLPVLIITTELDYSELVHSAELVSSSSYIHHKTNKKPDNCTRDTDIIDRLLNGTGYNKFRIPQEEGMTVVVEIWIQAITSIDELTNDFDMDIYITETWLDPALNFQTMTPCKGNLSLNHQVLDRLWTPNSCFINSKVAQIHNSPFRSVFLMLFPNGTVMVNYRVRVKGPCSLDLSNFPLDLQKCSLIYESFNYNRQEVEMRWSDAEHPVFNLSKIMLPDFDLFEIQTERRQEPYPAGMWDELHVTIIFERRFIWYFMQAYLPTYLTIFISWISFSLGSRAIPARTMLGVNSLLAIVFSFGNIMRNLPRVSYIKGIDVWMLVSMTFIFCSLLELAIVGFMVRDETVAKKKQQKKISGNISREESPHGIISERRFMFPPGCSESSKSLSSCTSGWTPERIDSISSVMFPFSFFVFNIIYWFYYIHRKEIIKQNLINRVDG
# T1 sequence (Q21005 whole entry, looked up): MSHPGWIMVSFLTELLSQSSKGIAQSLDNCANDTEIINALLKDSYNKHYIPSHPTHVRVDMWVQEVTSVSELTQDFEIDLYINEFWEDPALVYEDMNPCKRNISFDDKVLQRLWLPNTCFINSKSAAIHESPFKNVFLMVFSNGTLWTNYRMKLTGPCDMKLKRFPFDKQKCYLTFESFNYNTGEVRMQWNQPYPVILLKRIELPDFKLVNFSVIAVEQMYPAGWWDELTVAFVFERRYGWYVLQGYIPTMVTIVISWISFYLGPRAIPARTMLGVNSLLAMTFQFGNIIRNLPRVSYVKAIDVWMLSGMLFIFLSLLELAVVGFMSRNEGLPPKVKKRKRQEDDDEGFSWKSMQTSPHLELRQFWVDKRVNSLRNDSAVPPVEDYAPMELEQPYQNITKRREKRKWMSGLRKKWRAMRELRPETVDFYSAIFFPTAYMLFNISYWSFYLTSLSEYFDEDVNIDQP
# Sequence of rat α9nAChRs (P43144 26-479): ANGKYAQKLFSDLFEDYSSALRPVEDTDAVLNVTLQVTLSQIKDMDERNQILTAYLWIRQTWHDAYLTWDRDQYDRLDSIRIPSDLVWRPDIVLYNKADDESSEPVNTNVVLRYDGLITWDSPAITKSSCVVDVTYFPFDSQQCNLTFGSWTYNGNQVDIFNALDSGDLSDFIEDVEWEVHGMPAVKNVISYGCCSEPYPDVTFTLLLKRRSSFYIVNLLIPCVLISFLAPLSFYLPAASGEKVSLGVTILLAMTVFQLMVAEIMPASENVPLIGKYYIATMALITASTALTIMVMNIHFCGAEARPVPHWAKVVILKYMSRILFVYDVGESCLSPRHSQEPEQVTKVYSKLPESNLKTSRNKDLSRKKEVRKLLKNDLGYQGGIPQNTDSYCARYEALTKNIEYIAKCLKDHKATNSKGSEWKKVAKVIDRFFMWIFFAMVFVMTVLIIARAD
compound,measurement,setting,value
N[C@@H](CCC(=O)O)C(=O)O [glutamate],response (in words),ACC-3D10.5,did not respond
same,response (in words),ACC-2D6.3+ACC-4E9.9,Neither did ACC-2D6.3+ACC-3D10.5 nor ACC-2D6.3+ACC-4E9.9 expressing oocytes respond
same,response (in words),ACC-2D6.3+ACC-3D10.5,Neither did ACC-2D6.3+ACC-3D10.5 nor ACC-2D6.3+ACC-4E9.9 expressing oocytes respond
same,response (in words),ACC-4E9.9,did not respond
same,response (in words),ACC-2D6.3 channel [1]; 1 mM,did not respond
same,response (in words),ACC-1G6.4 channel,did not respond
NCC(=O)O [glycine],response (in words),ACC-3D10.5,did not respond
same,response (in words),ACC-4E9.9,did not respond
same,response (in words),ACC-1G6.4 channel,did not respond
NCCc1c[nH]cn1 [histamine],response (in words),ACC-3D10.5,did not respond
same,response (in words),ACC-4E9.9,did not respond
same,response (in words),ACC-1G6.4 channel,did not respond
C[C@@H]1O[C@H](C[N+](C)(C)C)C[C@H]1O [muscarine],IC50,rat α9nAChRs,84000 nM
same,agonist action (in words),rat α9nAChRs,no agonistic activity
same,antagonist action (in words),rat α9nAChRs,Antagonist
same,Antagonist: percentage decrease in a response to acetylcholine,ACC-1G6.4 channel,51.6 ± 5.9%
same,IC50 (range),ACC-1G6.4 channel,IC50: mM range
same,agonist action (in words),ACC-1G6.4 channel,no agonistic activity
same,antagonist action (in words),ACC-1G6.4 channel,Antagonist; also recorded: weak antagonistic activity
same,activation at 1000 µM,ACC-1G6.4 channel; [4],0%
CN1CCCC1c1cccnc1 (stereo not drawn) [nicotine],agonist action (in words),rat α9nAChRs,no agonistic activity
same,antagonist action (in words),rat α9nAChRs,Antagonist
same,EC50,ACC-2D6.3 channel [1],~1 mM
same,antagonist action (in words),ACC-2D6.3 channel [1],no antagonistic
same,concentrations at which channels responded,ACC-2D6.3 channel [2],0.8 to 1 mM
same,EC50,"[3]; Table 4, order of magnitude, read-out: EC50 (range)",~100 µM
same,agonist action (in words),[3],Weak partial agonist
same,EC50,ACC-1G6.4 channel,~1 mM
same,IC50,ACC-1G6.4 channel,~100 µM
same,agonist action (in words),ACC-1G6.4 channel,weak agonists and/or antagonists; also recorded: very weak agonist; also recorded: poorly; also recorded: Weak partial agonist
same,antagonist action (in words),ACC-1G6.4 channel,partial antagonist
same,activation at 100 µM,ACC-1G6.4 channel; [4],5.2 ± 1.2%
same,activation at 1000 µM,ACC-1G6.4 channel; [4],12 ± 2.7%
NCCc1c[nH]c2ccc(O)cc12 [serotonin],response (in words),ACC-3D10.5,not observed
same,response (in words),ACC-2D6.3+ACC-4E9.9,Neither did ACC-2D6.3+ACC-3D10.5 nor ACC-2D6.3+ACC-4E9.9 expressing oocytes respond
same,response (in words),ACC-2D6.3+ACC-3D10.5,Neither did ACC-2D6.3+ACC-3D10.5 nor ACC-2D6.3+ACC-4E9.9 expressing oocytes respond
same,response (in words),ACC-4E9.9,not observed
same,current response,ACC-2D6.3 channel [1]; 1 mM,10-30 nA
same,Agonist: percentage of maximal acetylcholine-elicited response,ACC-2D6.3 channel [1]; compound at 1 mM,3.7 ± 0.4%
same,response (in words),ACC-1G6.4 channel,not observed
same,activation at 1000 µM,ACC-1G6.4 channel; [4],0%
O=C1C[C@@H]2OCC=C3CN4CC[C@]56c7ccccc7N1[C@H]5[C@H]2[C@H]3C[C@H]46 [strychnine],IC50,rat α9nAChRs,17.9 nM
same,Agonist: percentage of maximal acetylcholine-elicited response,ACC-2D6.3 channel [1],0%
same,antagonist action (in words),ACC-2D6.3 channel [1],Antagonist
same,estimated Hill coefficient (antagonist),ACC-2D6.3 channel [1],1.38±0.12
same,IC50,ACC-2D6.3 channel [1]; IC50 (block of channel),2.95 ± 0.8 µM
same,IC50,ACC-2D6.3 channel [1]; IC50 (range or bound),~10 µM
same,Antagonist: percentage decrease in a response to acetylcholine,ACC-1G6.4 channel,96 ± 1.2%
same,IC50,ACC-1G6.4 channel; IC50 (block of channel),4.61 ± 0.27 µM
same,IC50,ACC-1G6.4 channel; IC50 (range or bound),~10 µM
same,activation at 50 µM,ACC-1G6.4 channel; [4],0%
α-bungarotoxin [α-BT],antagonist action (in words),rat α9nAChRs,Antagonist
same,IC50,rat α9nAChRs; read-out: IC50,4 nM
same,Agonist: percentage of maximal acetylcholine-elicited response,ACC-2D6.3 channel [1],0%
same,Antagonist: percentage decrease in a response to acetylcholine,ACC-2D6.3 channel [1],0%
same,IC50,[3],~1000 nM
same,antagonist action (in words),[3],Antagonist
same,Agonist: percentage of maximal acetylcholine-elicited response,ACC-1G6.4 channel,0%
same,Antagonist: percentage decrease in a response to acetylcholine,ACC-1G6.4 channel,0%
same,antagonist action (in words),ACC-1G6.4 channel,no effect; also recorded: not blocked; also recorded: no antagonistic
